These are literature values, as cited in article PMC6986806 (Nature chemical biology, 2020).

Molecules are shown by their SMILES.

The series deals with GluN1/GluN2D.

`COc1ccc(OCC2c3cc(OC)c(OC)cc3CCN2C(=O)c2cccc(Cl)c2)cc1` (stereo not shown) [CIQ]: the “effect on GluN1/GluN2D unitary current” value is reported as “no effect”.
